Assay results: PubChem BioAssay (NCI)
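Grown in 96-well plates, cells were treated for 48 hours with each compound at five concentrations. Insufficient inhibition: endpoint recorded as highest concentration tested. The concentration for 50% growth inhibition is given as GI50. At the TGI there is no net growth.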

Assays:
Experiment in all cases: NCI tumour cell line growth inhibition, 48 h
K-562 leukemia = tested on: K-562 leukemia
NCI-H460 lung = tested on: NCI-H460 lung
DU-145 prostate = tested on: DU-145 prostate
RPMI-8226 leukemia = tested on: RPMI-8226 leukemia
HCT-116 colon = tested on: HCT-116 colon
A549 NSCLC = tested on: A549 NSCLC
KM12 colon = tested on: KM12 colon
NCI-H23 lung = tested on: NCI-H23 lung
786-0 renal = tested on: 786-0 renal
COLO 205 colon = tested on: COLO 205 colon
HOP-62 NSCLC = tested on: HOP-62 NSCLC
MCF7 breast = tested on: MCF7 breast
MALME-3M melanoma = tested on: MALME-3M melanoma
SF-295 CNS = tested on: SF-295 CNS
MDA-MB-231 breast = tested on: MDA-MB-231 breast
SK-MEL-28 melanoma = tested on: SK-MEL-28 melanoma
A498 renal = tested on: A498 renal
CAKI-1 renal = tested on: CAKI-1 renal
HS 578T breast = tested on: HS 578T breast
HCC-2998 colon = tested on: HCC-2998 colon
OVCAR-4 ovarian = tested on: OVCAR-4 ovarian
M14 melanoma = tested on: M14 melanoma
SW-620 colon = tested on: SW-620 colon
BT-549 breast = tested on: BT-549 breast
SNB-75 CNS = tested on: SNB-75 CNS
SN12C renal = tested on: SN12C renal
EKVX NSCLC = tested on: EKVX NSCLC
OVCAR-5 ovarian = tested on: OVCAR-5 ovarian

Nc1ncnc2c1ncn2Cc1ccc(CCl)cc1
GI50 (K-562 leukemia): 14.9 µM | TGI (K-562 leukemia): > 100 µM | GI50 (NCI-H460 lung): 17 µM | TGI (NCI-H460 lung): 41.1 µM | GI50 (DU-145 prostate): 19 µM | TGI (DU-145 prostate): 50.7 µM | GI50 (RPMI-8226 leukemia): 15.1 µM | TGI (RPMI-8226 leukemia): > 100 µM | GI50 (HCT-116 colon): 36.2 µM | TGI (HCT-116 colon): > 100 µM | GI50 (A549 NSCLC): 17.1 µM | TGI (A549 NSCLC): 35.1 µM | GI50 (KM12 colon): 13.6 µM | TGI (KM12 colon): 37.2 µM | GI50 (NCI-H23 lung): 17.5 µM | TGI (NCI-H23 lung): 37.6 µM | GI50 (786-0 renal): 27.5 µM | TGI (786-0 renal): 73.6 µM | GI50 (COLO 205 colon): 14.2 µM | TGI (COLO 205 colon): 31.4 µM | GI50 (HOP-62 NSCLC): 34.5 µM | TGI (HOP-62 NSCLC): > 100 µM | GI50 (MCF7 breast): 11.7 µM | TGI (MCF7 breast): 62.7 µM | GI50 (MALME-3M melanoma): 19 µM | TGI (MALME-3M melanoma): 43.4 µM | GI50 (SF-295 CNS): 15.7 µM | TGI (SF-295 CNS): 34.4 µM | GI50 (MDA-MB-231 breast): 17.5 µM | TGI (MDA-MB-231 breast): 35.8 µM | GI50 (SK-MEL-28 melanoma): 21.7 µM | TGI (SK-MEL-28 melanoma): > 100 µM | GI50 (A498 renal): 12.6 µM | TGI (A498 renal): 31.9 µM | GI50 (CAKI-1 renal): 14.3 µM | TGI (CAKI-1 renal): 28.9 µM | GI50 (HS 578T breast): 25.9 µM | TGI (HS 578T breast): 58.1 µM | GI50 (HCC-2998 colon): 14.2 µM | TGI (HCC-2998 colon): 29 µM | GI50 (OVCAR-4 ovarian): 19.4 µM | TGI (OVCAR-4 ovarian): 38.3 µM | GI50 (M14 melanoma): 25.2 µM | TGI (M14 melanoma): 60.5 µM | GI50 (SW-620 colon): 12.8 µM | TGI (SW-620 colon): 30.2 µM | GI50 (BT-549 breast): 14.3 µM | TGI (BT-549 breast): 28.7 µM | GI50 (SNB-75 CNS): 22.3 µM | TGI (SNB-75 CNS): 62.6 µM | GI50 (SN12C renal): 21.2 µM | TGI (SN12C renal): 35.6 µM | GI50 (EKVX NSCLC): 17 µM | TGI (EKVX NSCLC): 34.9 µM | GI50 (OVCAR-5 ovarian): 18.8 µM
